Values of other authors, collected in US20080279914A1, “Transdermal composition comprising piroxicam-inorganic material complex and patch system comprising the same” (priority 2006, published 2008).

Conditions: orally administered

## CN1C(C(=O)Nc2ccccn2)=C(O)c2ccccc2S1(=O)=O [piroxicam]
  drug discharged unchanged in the urine: less than 5%
